How the values were obtained:
[1] = system: Xenopus oocytes; test: Xenopus oocyte maturation assay; format: cell-based; settings: for Xenopus Oocyte Maturation Assay, With Progesterone: test compound 100 μM, progesterone 2 μg/mL, inhibitor = slowed rate of progesterone-dependent GVBD by 20% or more
Source text: An in vivo Xenopus oocyte maturation assay was used to screen the compounds for their ability to modulate the activity of cell cycle control proteins, mRNA translational control proteins, and/or proteins involved in signaling pathways. In this assay, oocyte maturation (or cell cycle progression) is monitored phenotypically using an image capture system. Oocyte maturation is correlated with the appearance of a white spot at the animal pole of the darkly pigmented animal hemisphere of the oocyte. The white spot appears because the germinal vesicle (i.e., the large nucleus of the oocyte) migrates to the animal pole prior to meiotic germinal vesicle breakdown (GVBD).
Immature stage VI Xenopus oocytes were transferred to wells of a flat bottom 96-well plate containing about 178 μL of L15 culture media. The oocytes were transferred using wide mouth 200 μL pipette tips with minimal transfer of culture medium (e.g., about 20 μL). Generally, the oocytes oriented with the pigmented animal hemisphere facing up due to the higher density of the yolk-containing vegetal hemisphere. Incorrectly orientated oocytes were gently manipulated using a drawn-out capillary tube to rotate them into the correct orientation.
Forty-four test compounds were dissolved in DMSO to make 100× stock solutions. The test compounds were added to the appropriate wells at a final concentration of 100 μM (and 1% DMSO). Control oocytes were exposed to 1% DMSO only (generally the first and last wells of a plate contained the untreated, control oocytes). Sixteen hours later, progesterone was added to each well to stimulate progesterone-dependent oocyte maturation. For this, 2 μL of 1000× stock solution (2 mg/mL in ethanol) was added to the appropriate wells to yield a final concentration of 2 μg/mL. The rate of maturation in the control oocytes (i.e., those in the first and last wells) served as an intra-assay control for time taken for progesterone addition across the multi-well plate.
The 96-well plate was imaged from above (i.e., top-down) using a 36-megapixel Nikon D800 SLR camera with an AF Micro Nikkor 60 mm, f/2.8 lens, mounted on a dedicated copy stand (with adjustable flanking light sources). The plate was imaged prior to and after addition of progesterone (i.e., images were taken at regular intervals over a period of 7 hours). The high resolution images were digitally zoomed after capture to analyze the maturation status of oocytes in individual wells of the plate. Test compounds that slowed the rate of progesterone-dependent GVBD by 20% or more were classified as inhibitors (assessed relative to the time 50% of the population of control, vehicle treated oocytes had undergone GVBD (GVBD50)).
To determine whether the test compounds were able to activate oocyte maturation in a progesterone-independent manner, oocytes were incubated in the presence of the test compound (dissolved in DMSO) or DMSO only. The oocytes were imaged at regular intervals for the evidence of GVBD, or subsets of oocytes were removed at predetermined times and the activation status of key cell cycle control proteins (e.g., pMAP kinase, pCcd2, etc.) was analyzed by Western blotting. For example, activation of pMAP kinase is associated with increased phosphorylation whereas activation of pCdc2 is associated with decreased phosphorylation. Compounds were classified as an activator if they were able to induce GVBD in the absence of added progesterone. Further, compounds were classified as accelerators if they accelerated the rate of progesterone-stimulated GVBD, but were unable to induce GVBD in the absence of progesterone. The criteria for test compounds to be considered accelerators is that they must increase the rate of progesterone-dependent GVBD by 20% or more at one dose (assessed relative to the time 50% of the population of control, vehicle treated oocytes had undergone GVBD (GVBD50)).

[2] = system: MCF-7 cells; test: Mammosphere formation, MCF-7; format: cell-based; settings: compound present first 3 days, scored day 14 (P2), 50, 5 and 0.5 μM
Source text: Mammosphere culture growth presents a useful indicator of the presence of breast cancer cells with stem cell-like properties. Breast cancer cell lines grown as mammospheres (under non-adherent plating conditions) recapitulate the three-dimensional organization of tumors. Importantly, assessment of stem cell self-renewal capacity can be achieved through dispersion of mammospheres to single cells and subsequent limited dilution replating. To determine whether PNR-5-46, PNR-5-41, or JVM-20 inhibited mammosphere formation in this system, […], and then cultured in the absence of the test compound. At day 7, mammospheres were collected, dispersed to single cells and replated at limiting dilution (P1). Spheroids were scored at day 14 (P2). Mammosphere forming units (MFUs) are defined as spheroid bodies >100 μm (MCF-7 cells) or >65 μm (MDA MB231 cells) diameter after 7 (P1) or 14 (P2) days growth in non-adherent culture.

[3] = system: neuroblastoma cell line SHSY5Y; test: Neurosphere formation, SHSY5Y; format: cell-based; settings: lowest dose tested 0.5 μM
Description: (§1) The activity of the three test compounds to inhibit neurosphere formation was also tested in a neuroblastoma cell line SHSY5Y and a glioblastomoa cell line U87. All three compounds attenuated neurosphere formation in both cell lines, to varying degrees of efficacy (FIG. 2A,B). […] None of the compounds affected cell viability.

[4] = system: glioblastomoa cell line U87; test: Neurosphere formation, U87; format: cell-based; settings: lowest dose tested 0.5 μM
Description: as §1

For “13-(4-aminophenyl)parthenolide [PNR-5-41]”, the “Xenopus Oocyte Maturation Assay, With Progesterone” value [1] was “Inhibitor”, the “mammosphere formation relative to DMSO-treated control cells” value [2] was “did not” and the “neurosphere formation / stem cell self-renewal” value [3] was “Significant inhibition”. The “neurosphere formation / stem cell self-renewal” value [4] was “Significant inhibition”.

`C[C@@]12CCC=C(CO)C3C[C@H]4/C(=C\c5ccccc5)C(=O)O[C@@H]4[C@@]31O2` (stereo partly shown) gave a melting point of 115 to 117 °C.

In the case of `CC1=CCCC2(C)OC2C2OC(=O)C(CNCCN3CCOCC3)C2CC1` (stereo not shown) [JVM-11, 13-(aminoethylmorpholino)parthenolide], the “Xenopus Oocyte Maturation Assay, With Progesterone” value [1] is reported as “Inhibitor”.

In the case of `C/C1=C\CC[C@@]2(C)O[C@H]2[C@H]2OC(=O)[C@@H](CNc3nc4ccccc4[nH]3)[C@@H]2CC1` [JVM-9, 13-(2-aminobenzimidazole)parthenolide], the “Xenopus Oocyte Maturation Assay, Without Progesterone” value ([1]; no progesterone, activator = able to induce GVBD in the absence of added progesterone) is reported as “Activator”.

— patent US20160083397A1, “PARTHENOLIDE DERIVATIVES AND THEIR MODULATION OF PROCESSES CONTROLLED BY REGULATED TRANSLATION” (THE BOARD OF TRUSTEES OF THE UNIVERSITY OF ARKANSAS, priority 2013, published 2016)
